Experimental data from US20040010001A1, “Methods and compositions for modulating cell proliferation and cell death” (priority 1999, published 2004).
Where two headings read alike, the source gives them in different places.

Key:
Format in all cases: cell-based
Human pharynx FaDu = experiment: FGF-induced resistance, inhibition of BrdU incorporation; conditions: read-out: Drug concentration needed to produce 50% inhibition
Method: (§1) Prior to drug treatment, cells were incubated for 4 days with tumor CM or with r-aFGF ad/or r-bFGF-containing medium, supplemented with 1% FBS (final protein concentration adjusted to 2 mg/ml). The medium was renewed every other day.
(§2) The antiproliferative drug effect in histocultures was measured as inhibition of ^3H-thymidine incorporation quantified by autoradiography (Yen, W. C. et al. (1996) Pharm. Res. 13:1305-1312) and, for monolayers, as inhibition of BrdU incorporation or as reduction of total proteins by the sulforhodamine B assay (Au, J. L.-S. et al. (1998) Cancer Res. 58:2141-2148). For the latter, the two assays yielded qualitatively similar results. Cell kill induced by 96-hour drug treatment was monitored by the release of LDH into the culture medium. LDH activity was monitored by the conversion of tetrazolium to formazan (detected at 490 nm).
(§3) The experimental conditions are described briefly below. Cells were pretreated with human recombinant r-aFGF and/or r-bFGF for 96 hours and then with drugs for 96 hours. For the studies on cells derived from the human prostate, lung, pharynx, colon and breast cancer cells, the drug effect was determined by the inhibition of BrdU incorporation. For the study on the human leukemic cells, the drug effect was measured by the MTT assay, which measures the number of metabolically active cells (Alley, M. C. et al (1988) Cancer Res 48:589-601).

[1] = system: Human breast BC19 (subline of MCF7 transfected with mdr1); experiment: as above; conditions: read-out: Drug concentration needed to produce 50% inhibition
Method: as §1, §2, §3

Human prostate PC3 = experiment: as above; conditions: Homo sapiens, read-out: Drug concentration needed to produce 50% inhibition
Method: as §1, §2, §3

Human lung A459 = experiment: as above; conditions: read-out: Drug concentration needed to produce 50% inhibition
Method: as §1, §2, §3

Human breast MCF7 = experiment: as above; conditions: read-out: Drug concentration needed to produce 50% inhibition
Method: as §1, §2, §3

Human colon HT-29 = experiment: as above; conditions: read-out: Drug concentration needed to produce 50% inhibition
Method: as §1, §2, §3

Rat prostate MAT-LyLu = experiment: as above; conditions: read-out: Drug concentration needed to produce 50% inhibition
Method: as §1, §2, §3

[2] = system: rat lymph node metastasis cells, monolayers; experiment: Drug effect in monolayers of rat lymph node metastasis cells (inhibition of bromodeoxyuridine incorporation); conditions: 96 h, read-out: Concentration producing 50% inhibition
[3] = system: rat primary tumor cells, monolayers; experiment: Drug effect in monolayers of rat primary tumor cells (inhibition of bromodeoxyuridine incorporation); conditions: 96 h, read-out: Concentration producing 50% inhibition
[4] = system: rat lung metastasis cells, monolayers; experiment: Drug effect in monolayers of rat lung metastasis cells (inhibition of bromodeoxyuridine incorporation); conditions: 96 h, read-out: Concentration producing 50% inhibition
[5] = system: rat primary tumors, histocultures; experiment: Drug effect in histocultures of rat primary tumors (inhibition of 3H-thymidine incorporation)
[6] = 96 h, r-aFGF + r-bFGF 0.04 ± 1 ng/ml
[7] = 96 h, r-aFGF + r-bFGF 0.08 ± 1 ng/ml
[8] = 96 h, r-aFGF + r-bFGF 0.64 ± 1 ng/ml
[9] = 96 h, r-aFGF + r-bFGF 1 ± 1 ng/ml

Compound `CC(=O)O[C@H]1C(=O)[C@@]2(C)[C@H]([C@H](OC(=O)c3ccccc3)[C@]3(O)C[C@H](OC(=O)[C@H](O)[C@@H](NC(=O)c4ccccc4)c4ccccc4)C(C)=C1C3(C)C)[C@]1(OC(C)=O)CO[C@@H]1C[C@@H]2O` [Paclitaxel] has an IC50 (Human pharynx FaDu; 96 h, r-aFGF + r-bFGF 0 ng/ml) of 0.82 nM, an IC50 (Human pharynx FaDu; [6]) of 0.84 nM and an IC50 (Human pharynx FaDu; [7]) of 0.82 nM. It also gave an IC50 (Human pharynx FaDu; 96 h, r-aFGF + r-bFGF 0.16 ± 1 ng/ml) of 0.81 nM, an IC50 (Human pharynx FaDu; 96 h, r-aFGF + r-bFGF 0.32 ± 1 ng/ml) of 0.84 nM and an IC50 (Human pharynx FaDu; [8]) of 2.01 nM. For the same compound, the IC50 (Human pharynx FaDu; [9]) was 3.5 nM, the IC50 (Human pharynx FaDu; r-aFGF 0 ng/ml) was 0.82 nM and the IC50 (Human pharynx FaDu; r-aFGF 1 ng/ml) was 0.8 nM. For the same compound, the IC50 (Human pharynx FaDu; r-aFGF 10 ng/ml) was 0.82 nM, the IC50 (Human pharynx FaDu; r-aFGF 50 ng/ml) was 0.83 nM and the IC50 (Human pharynx FaDu; r-bFGF 0 ng/ml) was 0.77 nM. The IC50 (Human pharynx FaDu; r-bFGF 1 ng/ml) was 0.79 nM, the IC50 (Human pharynx FaDu; r-bFGF 10 ng/ml) was 0.74 nM and the IC50 (Human pharynx FaDu; r-bFGF 50 ng/ml) was 0.82 nM. For the same compound, the IC50 ([1]; r-bFGF 0 ng/ml) was 59.6 nM, the IC50 ([1]; r-bFGF 0.01 ng/ml) was 112 nM and the IC50 ([1]; r-bFGF 0.1 ng/ml) was 183 nM. For the same compound, the IC50 ([1]; r-bFGF 1 ng/ml) was 236 nM, the IC50 (Human prostate PC3; 96 h, r-aFGF + r-bFGF 0 ng/ml) was 1.2 nM and the IC50 (Human prostate PC3; [6]) was 1.2 nM. The IC50 (Human prostate PC3; [7]) was 2.1 nM, the IC50 (Human prostate PC3; [8]) was 5.8 nM and the IC50 (Human prostate PC3; [9]) was 6.9 nM. For the same compound, the IC50 (Human prostate PC3; 96 h, r-aFGF + r-bFGF) was 3.1 nM, the IC50 (Human prostate PC3; r-aFGF 0 ng/ml) was 1.2 nM and the IC50 (Human prostate PC3; r-aFGF 1 ng/ml) was 1.2 nM. The IC50 (Human prostate PC3; r-aFGF 10 ng/ml) was 1.1 nM, the IC50 (Human prostate PC3; r-aFGF 50 ng/ml) was 1.2 nM and the IC50 (Human prostate PC3; r-bFGF 0 ng/ml) was 1.2 nM. The IC50 (Human prostate PC3; r-bFGF 1 ng/ml) was 1.2 nM, the IC50 (Human prostate PC3; r-bFGF 10 ng/ml) was 2.1 nM and the IC50 (Human prostate PC3; r-bFGF 50 ng/ml) was 3.3 nM. For the same compound, the IC50 (Human lung A459; A459, r-bFGF 0 ng/ml) was 0.87 nM, the IC50 (Human lung A459; A459, r-bFGF 1 ng/ml) was 0.9 nM and the IC50 (Human lung A459; A459, r-bFGF 10 ng/ml) was 1.07 nM. The IC50 (Human lung A459; A459, r-bFGF 50 ng/ml) was 1.22 nM, the IC50 (Human breast MCF7; MCF7, r-bFGF 0 ng/ml) was 0.32 nM and the IC50 (Human breast MCF7; MCF7, r-bFGF 0.01 ng/ml) was 0.45 nM. The IC50 (Human breast MCF7; MCF7, r-bFGF 0.1 ng/ml) was 0.84 nM, the IC50 (Human breast MCF7; MCF7, r-bFGF 1 ng/ml) was 1.3 nM and the IC50 (Human colon HT-29; HT-29, 96 h, r-aFGF + r-bFGF 0 ng/ml) was 2.2 nM. The IC50 (Human colon HT-29; HT-29, 96 h, r-aFGF + r-bFGF 0.04 ± 1 ng/ml) was 2 nM, the IC50 (Human colon HT-29; HT-29, 96 h, r-aFGF + r-bFGF 0.08 ± 1 ng/ml) was 2 nM and the IC50 (Human colon HT-29; HT-29, 96 h, r-aFGF + r-bFGF 0.16 ± 1 ng/ml) was 2.1 nM. For the same compound, the IC50 (Human colon HT-29; HT-29, 96 h, r-aFGF + r-bFGF 0.64 ± 1 ng/ml) was 6.2 nM, the IC50 (Human colon HT-29; HT-29, r-aFGF 0 ng/ml) was 2.1 nM and the IC50 (Human colon HT-29; HT-29, r-aFGF 1 ng/ml) was 2 nM. The IC50 (Human colon HT-29; HT-29, r-aFGF 10 ng/ml) was 1.9 nM, the IC50 (Human colon HT-29; HT-29, r-aFGF 50 ng/ml) was 2 nM and the IC50 (Human colon HT-29; HT-29, r-aFGF + r-bFGF 1 ± 1 ng/ml) was 10.8 nM. For the same compound, the IC50 (Human colon HT-29; HT-29, r-bFGF 0 ng/ml) was 2.1 nM, the IC50 (Human colon HT-29; HT-29, r-bFGF 1 ng/ml) was 2 nM and the IC50 (Human colon HT-29; HT-29, r-bFGF 10 ng/ml) was 1.9 nM. The IC50 (Human colon HT-29; HT-29, r-bFGF 50 ng/ml) was 2 nM, the IC50 (Rat prostate MAT-LyLu; r-bFGF 0 ng/ml) was 12.7 nM and the IC50 (Rat prostate MAT-LyLu; r-bFGF 1 ng/ml) was 16.3 nM. It also gave an IC50 (Rat prostate MAT-LyLu; r-bFGF 10 ng/ml) of 47.8 nM, an IC50 (Rat prostate MAT-LyLu; r-bFGF 50 ng/ml) of 214 nM and an IC50 ([2]; Monolayers (passage 0)) of 32.9 ± 3.6 nM. It also gave an IC50 ([2]; Monolayers (passage 1)) of 21.8 ± 0.9 nM, an IC50 ([2]; Monolayers (passage 2)) of 15 ± 0.9 nM and an IC50 ([2]; Monolayers (passage 3)) of 11.7 ± 0.3 nM. For the same compound, the IC50 ([3]; Monolayers (passage 0)) was 10.7 ± 0.5 nM, the IC50 ([3]; Monolayers (passage 1)) was 10.5 ± 0.5 nM and the IC50 ([3]; Monolayers (passage 2)) was 10.3 ± 0.8 nM. The IC50 ([3]; Monolayers (passage 3)) was 10 ± 0.2 nM, the IC50 ([4]; Monolayers (passage 0)) was 92.4 ± 6.9 nM and the IC50 ([4]; Monolayers (passage 1)) was 28.1 ± 0.7 nM. For the same compound, the IC50 ([4]; Monolayers (passage 2)) was 21.5 ± 3.7 nM, the IC50 ([4]; Monolayers (passage 3)) was 11.4 ± 0.7 nM and the inhibition at 10 µM [5] was < 50%. The IC30 (concentration producing 30% inhibition) ([5]; 24 h, read-out: Concentration producing 50% inhibition (data shown are the concentrations that produced 30% inhibition)) was > 14 nM.
